Experiments:
Assay in all cases: relative viability (nuclei count vs DMSO), 5 days (fraction); higher = more cells survive
[1] = compound: C1=CC(=CC=C1NC(=S)NNC2=C(C=C(C=C2[N+](=O)[O-])C(F)(F)F)[N+](=O)[O-])F [Kobe2602] + C[C@@H](Oc1cc(-c2cnn(C3CCNCC3)c2)cnc1N)c1c(Cl)ccc(F)c1Cl [Crizotinib] (partner 1 µM)
Procedure, shortened: (§1)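 A single step with final 0.05% Triton X-100, 1% formaldehyde and 1 ug/ml Hoechst fixed the cells and stained nuclei 5 days after treatment. Lung cancer cell lines in 1536-well plates had been treated by pin tool the day after seeding with one drug alone or a fixed anchor-drug dose plus five library-drug doses (not always all listed) in √10 steps, and nuclei were counted on 4× images. Relative viability is the ratio of nuclei in treated wells to nuclei in vehicle wells, taken as the median of duplicate plates.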

[2] = compound: C1=CC(=CC=C1NC(=S)NNC2=C(C=C(C=C2[N+](=O)[O-])C(F)(F)F)[N+](=O)[O-])F [Kobe2602] + N=C(N)NC(=N)NCCc1ccccc1 [Phenformin] (partner 250 µM)
Procedure, shortened: as §1

[3] = compound: COc1cc2nccc(Oc3ccc(NC(=O)C4(C(=O)Nc5ccc(F)cc5)CC4)cc3)c2cc1OC [Cabozantinib] + Cc1nc(Nc2ncc(C(=O)Nc3c(C)cccc3Cl)s2)cc(N2CCN(CCO)CC2)n1 [Dasatinib] (partner 0.075 µM)
Procedure, shortened: as §1

[4] = compound: O[C@@H](COc1cccc2ncccc12)CN1CCN([C@@H]2c3ccccc3[C@@H]3[C@H](c4ccccc42)C3(F)F)CC1 [Zosuquidar] + CC(C)C[C@H](NC(=O)[C@H](Cc1ccccc1)NC(=O)c1cnccn1)B(O)O [Bortezomib] (partner 0.002 µM)
Procedure, shortened: as §1

| Cell Line | relative viability ([1]; first compound 0.2 µM) | relative viability ([1]; first compound 0.6325 µM) | relative viability ([1]; first compound 2 µM) | relative viability ([1]; first compound 6.325 µM) | relative viability ([1]; first compound 20 µM) | relative viability ([2]; first compound 0.2 µM) | relative viability ([2]; first compound 0.6325 µM) | relative viability ([2]; first compound 2 µM) | relative viability ([2]; first compound 6.325 µM) | relative viability ([2]; first compound 20 µM) | relative viability ([3]; first compound 0.02 µM) | relative viability ([3]; first compound 0.06325 µM) | relative viability ([3]; first compound 0.2 µM) | relative viability ([3]; first compound 0.6325 µM) | relative viability ([3]; first compound 2 µM) | relative viability ([4]; first compound 0.01 µM) | relative viability ([4]; first compound 0.03162 µM) | relative viability ([4]; first compound 0.1 µM) | relative viability ([4]; first compound 0.3162 µM) | relative viability ([4]; first compound 1 µM) |
| --- | --- | --- | --- | --- | --- | --- | --- | --- | --- | --- | --- | --- | --- | --- | --- | --- | --- | --- | --- | --- |
| HARA | 1.05 | 1.01 | 1.05 | 1.24 | 0.981 | 0.468 | 0.506 | 0.465 | 0.467 | 0.478 | 0.251 | 0.312 | 0.221 | 0.296 | 0.233 | 1.14 | 1.14 | 1.08 | 1.13 | 1.14 |
| HCC-15 | 0.747 | 0.803 | 0.727 | 0.769 | 0.752 | 0.482 | 0.494 | 0.443 | 0.43 | 0.363 | 0.548 | 0.717 | 0.651 | 0.568 | 0.598 | 0.925 | 0.998 | 0.956 | 0.995 | 1.04 |
| HCC-78 | 0.382 | 0.302 | – | 0.333 | 0.363 | 0.693 | 0.699 | 0.736 | 0.727 | 0.9 | – | 0.431 | 0.185 | 0.195 | 0.217 | 0.582 | 0.392 | – | 0.625 | 0.428 |
| HCC-366 | 0.434 | 0.597 | 0.494 | 0.569 | 0.655 | 0.669 | 0.642 | 0.618 | 0.584 | 0.61 | 0.43 | 0.664 | 0.536 | 0.584 | 0.628 | 0.946 | 1.03 | 1.06 | 1.08 | 1.07 |
| HCC-827 | 0.925 | 0.921 | 0.903 | 0.91 | 0.859 | 0.428 | 0.441 | 0.464 | 0.364 | 0.413 | 0.327 | 0.31 | – | 0.262 | 0.242 | 0.931 | 0.961 | 1.05 | 1.05 | 0.844 |
| HOP-62 | 0.803 | 0.9 | 0.961 | 0.873 | 0.962 | 0.644 | 0.693 | 0.66 | 0.698 | 0.603 | 0.603 | 0.703 | 0.529 | 0.579 | 0.41 | 0.6 | 1.01 | 0.616 | 0.42 | 0.906 |
| LC-2-ad | 0.433 | 0.465 | 0.464 | 0.547 | 0.494 | 0.567 | 0.618 | 0.512 | 0.586 | 0.55 | – | 0.641 | 0.492 | 0.295 | 0.283 | 1.07 | 0.975 | 0.989 | 1.26 | 0.933 |
| LCLC-97TM1 | 0.405 | 0.336 | 0.242 | 0.372 | 0.282 | 0.44 | 0.428 | 0.434 | 0.39 | 0.42 | 0.723 | 0.854 | 0.757 | 0.848 | 0.717 | 0.433 | 0.538 | – | 0.844 | 0.464 |

— the supplement of paper PMC10307832
